How the values were obtained:
LiTR [1] = biological target: T1, LiTR (Leishmania infantum, UniProt A4HSF7); assay: LiTR enzymatic inhibition assay (NADPH oxidation, absorbance at 340 nm); assay type: biochemical; conditions: for activity at 100 µM: read-out: LiTR Activity (% at 100 µM)
T1 construct: LiTR has been expressed and purified as reported previously; made in house
Description: (§1) Furthermore, the best acting compound, namely 2b, reduced the activity of the enzyme by 47%.
Enzymatic inhibition assays were performed at 25 °C using a JASCO V650 spectrophotometer equipped with a JASCO EHC-716 Peltier unit. LiTR (50 nM) was mixed with 100 μM of the compounds and 150 μM trypanothione in 50 mM HEPES pH 7.4, 40 mM NaCl, and incubated at 25 °C for 3 min. The reaction was started upon addition of 100 μM NADPH. Oxidation of the NADPH was followed as a decrease in absorbance at 340 nm. The best inhibitor candidate (2b) was then tested under the same conditions at concentrations ranging from 0.1 to 200 μM to determine the IC50. LiTR activity was determined as V0(compound)/V0(control)*100, where V0 is the initial velocity. The IC50 was determined using a dose response logistic equation defined by the Kaleidagraph software as ymin + (ymax-ymin)/(1 + (x/IC50)^slope).

[2] = tested on: L. infantum promastigotes; design: method as in PMID 30475811; conditions: read-out: IC50 anti-proliferative effect; cited from earlier work
hGR = tested on: hGR; design: method as in PMID 30475811; conditions: cited from earlier work
LiTR [3] = biological target: T1, LiTR; design: method as in PMID 30475811; conditions: residual LiTR activity with 100 μM inhibitor; reference compound; cited from earlier work
[4] = biological target: T2, human homolog glutathione reductase (Homo sapiens, UniProt P00390); assay: Glutathione reductase inhibition assay (NADPH oxidation, absorbance at 340 nm); assay type: biochemical
T2 construct: purchased Sigma Aldrich
T2 sequence (P00390 44-522): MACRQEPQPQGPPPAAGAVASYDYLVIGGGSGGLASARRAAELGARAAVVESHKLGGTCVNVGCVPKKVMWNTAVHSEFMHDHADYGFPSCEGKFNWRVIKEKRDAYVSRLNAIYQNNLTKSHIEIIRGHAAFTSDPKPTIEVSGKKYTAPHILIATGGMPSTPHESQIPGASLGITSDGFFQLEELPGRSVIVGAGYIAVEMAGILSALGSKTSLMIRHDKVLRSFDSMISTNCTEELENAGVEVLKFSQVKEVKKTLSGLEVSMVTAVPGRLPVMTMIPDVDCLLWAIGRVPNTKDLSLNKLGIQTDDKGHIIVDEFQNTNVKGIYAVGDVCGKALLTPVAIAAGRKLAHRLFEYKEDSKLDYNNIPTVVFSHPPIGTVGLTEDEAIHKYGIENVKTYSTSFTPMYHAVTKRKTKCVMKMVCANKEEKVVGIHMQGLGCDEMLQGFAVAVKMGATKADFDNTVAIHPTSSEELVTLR
Description: as §1
Figure S9: Conformation of compound 3c with the lowest energy in the most populated cluster.
Figure S10. Inhibition kinetics of the glutathione reductase in the presence of compound 2b. Inhibition assays were performed at 25 °C using a JASCO V650 spectrophotometer equipped with a JASCO EHC-716 Peltier unit. Glutathione Reductase (GR) 50 nM, (purchased from Sigma Aldrich) was mixed with varying concentrations of compound 2b (0.1 to 200 μM) and 150 μM oxidized glutathione in 50 mM HEPES pH 7.4, 40 mM NaCl; and incubated at 25°C for 3 minutes. The reaction was started upon addition of 100 μM NADPH. Oxidation of NADPH was followed as a decrease in absorbance at 340 nm. GR activity was determined as V0(compound)/V0(control)*100 where V0 is the initial velocity. The IC50 was determined using a dose response logistic equation defined by the Kaleidagraph software as ymin+(ymax-ymin)/(1+(x/IC50)^slope). […]

T1 sequence (A4HSF7 1-491): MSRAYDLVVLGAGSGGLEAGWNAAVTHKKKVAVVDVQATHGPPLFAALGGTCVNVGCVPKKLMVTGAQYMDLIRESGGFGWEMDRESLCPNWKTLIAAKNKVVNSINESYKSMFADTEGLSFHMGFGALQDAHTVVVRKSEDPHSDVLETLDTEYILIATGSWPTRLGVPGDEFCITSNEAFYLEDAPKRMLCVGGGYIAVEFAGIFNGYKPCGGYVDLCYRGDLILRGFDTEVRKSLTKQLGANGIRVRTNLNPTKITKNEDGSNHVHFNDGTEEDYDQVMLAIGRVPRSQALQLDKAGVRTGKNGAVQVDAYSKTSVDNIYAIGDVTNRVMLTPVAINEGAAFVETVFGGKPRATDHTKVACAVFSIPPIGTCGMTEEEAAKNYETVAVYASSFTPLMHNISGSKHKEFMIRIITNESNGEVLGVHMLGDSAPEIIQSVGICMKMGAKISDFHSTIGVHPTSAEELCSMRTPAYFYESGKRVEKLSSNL

CCN(CC)CCOC(=O)c1ccc(NCCC(=O)c2ccccc2)cc1 [Compound 2d, 2-(Diethylamino)ethyl 4-((3-oxo-3-phenylpropyl)amino)benzoate]
activity at 100 µM (LiTR [1]): 73.8 ± 4.4%

CCN(CC)CCOC(=O)c1ccc(NCCC(=O)c2ccc(F)cc2)cc1 [Compound 2e, 2-(Diethylamino)ethyl 4-((3-(4-fluorophenyl)-3-oxopropyl)amino)benzoate]
activity at 100 µM (LiTR [1]): 60.5 ± 4.1%

CCN(CC)CCOC(=O)c1ccc(NCCC(=O)c2ccc(-c3ccccc3)cc2)cc1 [Compound 2a, 2-(Diethylamino)ethyl 4-((3-([1,1’-biphenyl]-4-yl)-3-oxopropyl)amino)benzoate]
activity at 100 µM (LiTR [1]): 55.4 ± 13.3%

CCN(CC)CCOC(=O)c1ccc(NCCC(=O)c2ccc([N+](=O)[O-])cc2)cc1 [Compound 1, 2-(diethylamino)ethyl 4-((3-(4-nitrophenyl)-3-oxopropyl)amino)benzoate]
IC50 [2]: 12.4 µM
IC50 (hGR): > 85 µM
LiTR Activity (% at 100 µM) (LiTR [3]): <10.0 [10] %

CCN(CC)CCOC(=O)c1ccc(NCCC(=O)c2ccc(-c3ccc(Cl)cc3)cc2)cc1 [Compound 2b, 2-(Diethylamino)ethyl 4-((3-(4’-chloro-[1,1’-biphenyl]-4-yl)-3-oxopropyl)amino)benzoate]
IC50 ([4]; 25 °C, 50 nM GR, 150 μM oxidized glutathione, 100 μM NADPH): > 150 µM
IC50 on glutathione reductase relative to IC50 on TR (selectivity) ([4]; GR versus LiTR): more than two-fold higher
residual LiTR activity (LiTR [1]; 100 μM compound): 47%
IC50 (LiTR [1]; 25 °C, 150 μM trypanothione, 100 μM NADPH, average of three experiments): 65 µM
activity at 100 µM (LiTR [1]): 47 ± 9.7%

CCN(CC)CCOC(=O)c1ccc(N(CCC(=O)c2ccc(F)cc2)CCC(=O)c2ccc(F)cc2)cc1 [Compound 2f, 2-(Diethylamino)ethyl 4-(bis(3-(4-fluorophenyl)-3-oxopropyl)amino)benzoate]
activity at 100 µM (LiTR [1]): 75 ± 2.4%

CCN(CC)CCNC(=O)c1ccc(NCCC(=O)c2ccc(Br)cc2)cc1 [Compound 3c, 4-((3-(4-Bromophenyl)-3-oxopropyl)amino)-N-(2-(diethylamino)ethyl)benzamide]
activity at 100 µM (LiTR [1]): 87.3 ± 1.9%

CCN(CC)CCNC(=O)c1ccc(NCCC(=O)c2ccc(-c3ccccc3)cc2)cc1 [Compound 3a, 4-((3-([1,1’-Biphenyl]-4-yl)-3-oxopropyl)amino)-N-(2-(diethylamino)ethyl)benzamide]
activity at 100 µM (LiTR [1]): 68.4 ± 6.7%

CCN(CC)CCNC(=O)c1ccc(NCCC(=O)c2ccc(-c3ccc(Cl)cc3)cc2)cc1 [Compound 3b, 4-((3-(4’-Chloro-[1,1’-biphenyl]-4-yl)-3-oxopropyl)amino)-N-(2-(diethylamino)ethyl)benzamide]
activity at 100 µM (LiTR [1]): 59.4 ± 2.4%

CCN(CC)CCOC(=O)c1ccc(NCCC(=O)c2ccc(Br)cc2)cc1 [Compound 2c, 2-(Diethylamino)ethyl 4-((3-(4-bromophenyl)-3-oxopropyl)amino)benzoate]
activity at 100 µM (LiTR [1]): 73.8 ± 4.6%

— publication PMC9823735, “Inhibition of Leishmania infantum Trypanothione Reductase by New Aminopropanone Derivatives Interacting with the NADPH Binding Site” (Molecules, 2023)
